Test results from US11407736B2 (priority 2019, dated 2022).

How the values were obtained:
RIPK1 = RIPK1 (Homo sapiens (Human), UniProt Q13546); test: RIPK1 ADP-Glo biochemical kinase assay; settings: read-out: RIPK1 ADP-Glo Kinase (IC50)
Protocol: The final reaction volume was 5.0ul.
Adding 5 μl of ADP-Glo™ terminated the reaction.

L929 cells = test: L929 cell necroptosis assay (TNFa + zVAD, CellTiter-Glo); type: cell-based, murine; settings: Mus musculus, L929, L929 cells, TNFa + zVAD; read-out: L929-CTG-recovery, L929, TNFa + zVAD (IC50)
Protocol: (§1) In this example, U937 and L929 cells were exposed to compounds of the present disclosure and a cell necroptosis assay was conducted to evaluate the compounds' activity against human RIP1 and murine RIP1.
U937 and L929 cells were obtained from the American Type Culture Collection (Manassa, Va., USA). Both cells were maintained in logarithmic growth phase in complete RPMI 1640 media (Sigma, ST Louis, Mo., USA) supplemented with 10% fetal bovine serum (Sigma, ST Louis, Mo., USA) at 37° C. with 5% CO2. For necroptosis assay, L929 cells were plated for 18 h in 100 μL/well medium at 10K cells/well in Costar 96-well black clear-bottom plates (Fisher Scientific, Hampton, N.H., USA); U937 cells were plated on the day of the assay in 50 4/well medium containing 60 uM zVAD-fink (Lonza, Basel, Switzerland) at 50K cells/well. Medium from L929 cells were removed from the 96-well plates and replaced with 50 μL/well new medium containing 40 uM zVAD-fink. Each compound of the present disclosure evaluated in this example was serially diluted in DMSO from 2.5 mM in 4-fold dilutions, and then diluted 1:125 in complete medium. 50 μL/well 2× of the compound was then added to the cells in the plates. […] The relative amount of necroptosis cells was determined by luminescent using a Wallac Victor2 Luminometer (PerkinElmer, Waltham, Mass., USA) and a CellTiter-Glo® Luminescent Cell Viability Reagent Assay (Promega, Madison, Wis., USA) added per manufacturer instructions after 18 hours of TNFa stimulation at 37° C. with 5% CO2.

U937 cells = test: U937 cell necroptosis assay (TNFa + zVAD, CellTiter-Glo); type: cell-based, human; settings: Homo sapiens, U-937, U937 cells, TNFa + zVAD; read-out: U937 Zvad TNF CTG Recovery, U937, TNFa + zVAD (IC50)
Protocol: as §1
U937 and L929 cells were obtained from the American Type Culture Collection (Manassa, Va., USA). Both cells were maintained in logarithmic growth phase in complete RPMI 1640 media (Sigma, ST Louis, Mo., USA) supplemented with 10% fetal bovine serum (Sigma, ST Louis, Mo., USA) at 37° C. with 5% CO2. For necroptosis assay, L929 cells were plated for 18 h in 100 μL/well medium at 10K cells/well in Costar 96-well black clear-bottom plates (Fisher Scientific, Hampton, N.H., USA); U937 cells were plated on the day of the assay in 50 4/well medium containing 60 uM zVAD-fink (Lonza, Basel, Switzerland) at 50K cells/well. Medium from L929 cells were removed from the 96-well plates and replaced with 50 μL/well new medium containing 40 uM zVAD-fink. Each compound of the present disclosure evaluated in this example was serially diluted in DMSO from 2.5 mM in 4-fold dilutions, and then diluted 1:125 in complete medium. 50 μL/well 2× of the compound was then added to the cells in the plates. The cells were pre-incubated with the compound for 1 hour at 37° C. with 5% CO2 and before addition of 10 μL/well 1 1×TNFa (Peprotech, Rocky Hill, N.J., USA) to give a final concentration of 2 ng/mL for TNFa. The relative amount of necroptosis cells was determined by luminescent using a Wallac Victor2 Luminometer (PerkinElmer, Waltham, Mass., USA) and a CellTiter-Glo® Luminescent Cell Viability Reagent Assay (Promega, Madison, Wis., USA) added per manufacturer instructions after 18 hours of TNFa stimulation at 37° C. with 5% CO2. This example establishes that embodiments of the compounds described herein have unexpectedly potent activity against human RIP1 and murine RIP1, which allows their assessment in in vivo mouse models of disease.

Chain of RIPK1 (Q13546 whole entry, species assumed): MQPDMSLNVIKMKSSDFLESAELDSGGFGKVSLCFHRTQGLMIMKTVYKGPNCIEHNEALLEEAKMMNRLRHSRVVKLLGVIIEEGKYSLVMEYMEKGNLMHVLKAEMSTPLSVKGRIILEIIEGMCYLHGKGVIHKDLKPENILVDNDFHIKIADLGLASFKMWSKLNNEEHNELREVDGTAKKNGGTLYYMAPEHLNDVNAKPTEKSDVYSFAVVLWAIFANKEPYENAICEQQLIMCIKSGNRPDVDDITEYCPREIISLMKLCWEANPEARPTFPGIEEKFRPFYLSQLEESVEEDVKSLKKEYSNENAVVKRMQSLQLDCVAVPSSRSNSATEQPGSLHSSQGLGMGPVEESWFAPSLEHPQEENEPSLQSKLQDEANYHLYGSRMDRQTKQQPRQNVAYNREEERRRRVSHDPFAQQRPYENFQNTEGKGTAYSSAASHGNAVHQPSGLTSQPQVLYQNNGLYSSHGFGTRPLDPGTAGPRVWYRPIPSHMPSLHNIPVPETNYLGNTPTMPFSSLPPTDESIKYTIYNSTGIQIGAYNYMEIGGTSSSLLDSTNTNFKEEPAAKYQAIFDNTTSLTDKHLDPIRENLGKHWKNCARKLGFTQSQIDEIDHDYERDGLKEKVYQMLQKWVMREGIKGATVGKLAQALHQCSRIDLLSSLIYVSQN

Structure (SMILES)	IC50 (RIPK1) [nM]	IC50 (L929 cells) [nM]	IC50 (U937 cells) [nM]
CN1C(=O)[C@@H](NC(=O)c2n[nH]c(Cc3ccccc3)n2)COc2ccc(CN3CCn4c(nnc4C(F)(F)F)C3)cc21 [Compound I-47, (S)-5-benzyl-N-(5-methyl-4-oxo-7-((3-(trifluoromethyl)-5,6-dihydro-[1,2,4]triazolo[4,3-a]pyrazin-7(8H)-yl)methyl)-2,3,4,5-tetrahydrobenzo[b][1,4]oxazepin-3-yl)-1H-1,2,4-triazole-3-carboxamide]	68.3	1.5	4.6
CCOC(=O)CCc1ccc2c(c1)N(C)C(=O)[C@@H](NC(=O)c1ncn(Cc3c(Cl)cccc3Cl)n1)CO2 [Compound I-8, Ethyl (S)-3-(3-(1-(2,6-dichlorobenzyl)-1H-1,2,4-triazole-3-carboxamido)-5-methyl-4-oxo-2,3,4,5-tetrahydrobenzo[b][1,4]oxazepin-7-yl)propanoate]	52.9	9.2	1.4
CN1C(=O)[C@@H](NC(=O)c2ncn(Cc3ccccc3)n2)COc2ccc(C#CCCOc3ccc4cccnc4c3)cc21 [Compound I-42, (S)-1-benzyl-N-(5-methyl-4-oxo-7-(4-(quinolin-7-yloxy)but-1-yn-1-yl)-2,3,4,5-tetrahydrobenzo[b][1,4]oxazepin-3-yl)-1H-1,2,4-triazole-3-carboxamide]	47.7	1.2	3.3
CN1C(=O)[C@@H](NC(=O)c2ncn(Cc3ccccc3)n2)COc2ccc(CN3CCn4ncnc4C3)cc21 [Compound I-25, (S)-1-benzyl-N-(7-((5,6-dihydro-[1,2,4]triazolo[1,5-a]pyrazin-7(8H)-yl)methyl)-5-methyl-4-oxo-2,3,4,5-tetrahydrobenzo[b][1,4]oxazepin-3-yl)-1H-1,2,4-triazole-3-carboxamide]	51	490	2.7
C=C(C)C#Cc1ccc2c(c1)N(C)C(=O)[C@@H](NC(=O)c1n[nH]c(Cc3ccccc3)n1)CO2 [Compound I-59, (S)-5-benzyl-N-(5-methyl-7-(3-methylbut-3-en-1-yn-1-yl)-4-oxo-2,3,4,5-tetrahydrobenzo[b][1,4]oxazepin-3-yl)-1H-1,2,4-triazole-3-carboxamide]	57.9	0.7	1.9
CN1C(=O)[C@@H](NC(=O)c2ncn(Cc3ccccc3F)n2)COc2ccc(CCC(=O)O)cc21 [Compound I-6, (S)-3-(3-(1-(2-fluorobenzyl)-1H-1,2,4-triazole-3-carboxamido)-5-methyl-4-oxo-2,3,4,5-tetrahydrobenzo[b][1,4]oxazepin-7-yl)propanoic acid]	72.4	97500	43.8
CN1C(=O)[C@@H](NC(=O)c2n[nH]c(Cc3ccccc3)n2)COc2ccc(CCCO)cc21 [Compound I-14, (S)-5-benzyl-N-(7-(3-hydroxypropyl)-5-methyl-4-oxo-2,3,4,5-tetrahydrobenzo[b][1,4]oxazepin-3-yl)-1H-1,2,4-triazole-3-carboxamide]	73	5880	11.4
CCOC(=O)CCc1ccc2c(c1)N(C)C(=O)[C@@H](NC(=O)c1ncn(Cc3ccccc3F)n1)CO2 [Compound I-5, Ethyl (S)-3-(3-(1-(2-fluorobenzyl)-1H-1,2,4-triazole-3-carboxamido)-5-methyl-4-oxo-2,3,4,5-tetrahydrobenzo[b][1,4]oxazepin-7-yl)propanoate]	19.7	18.8	0.5

Second part, led by results:

IC50 (RIPK1) [nM]	Structure (SMILES)	IC50 (L929 cells) [nM]	IC50 (U937 cells) [nM]
26.2	CN1C(=O)[C@@H](NC(=O)c2cc(Cc3ccc(F)cc3)ccn2)COc2ccc(C#CC(C)(C)O)cc21 [Compound I-125, (S)-4-(4-fluorobenzyl)-N-(7-(3-hydroxy-3-methylbut-1-yn-1-yl)-5-methyl-4-oxo-2,3,4,5-tetrahydrobenzo[b][1,4]oxazepin-3-yl)picolinamide]	116	9.8
25.5	Cc1ccccc1Cn1cnc(C(=O)N[C@H]2COc3ccc(C#CC(C)(C)O)cc3N(C)C2=O)n1 [Compound I-82, (S)—N-(7-(3-hydroxy-3-methylbut-1-yn-1-yl)-5-methyl-4-oxo-2,3,4,5-tetrahydrobenzo[b][1,4]oxazepin-3-yl)-1-(2-methylbenzyl)-1H-1,2,4-triazole-3-carboxamide]	0.3	1.9
23.4	CN1C(=O)[C@@H](NC(=O)c2cc(Oc3ccccc3)ccn2)COc2ccc(C#Cc3cn(C)cn3)cc21 [Compound I-203, (S)—N-(5-methyl-7-((1-methyl-1H-imidazol-4-yl)ethynyl)-4-oxo-2,3,4,5-tetrahydrobenzo[b][1,4]oxazepin-3-yl)-4-phenoxypicolinamide]	4	0.4
314	CC(C)CCc1ccc2c(c1)N(C)C(=O)[C@@H](NC(=O)c1cc(Oc3ccccc3)ccn1)CO2 [Compound I-108, (S)—N-(7-isopentyl-5-methyl-4-oxo-2,3,4,5-tetrahydrobenzo[b][1,4]oxazepin-3-yl)-4-phenoxypicolinamide]	2310	8.8
111	CN1CCC(O)(C#Cc2ccc3c(c2)N(C)C(=O)[C@@H](NC(=O)c2cc(Oc4ccc(F)cc4)ccn2)CO3)CC1 [Compound I-135, (S)-4-(4-fluorophenoxy)-N-(7-((4-hydroxy-1-methylpiperidin-4-yl)ethynyl)-5-methyl-4-oxo-2,3,4,5-tetrahydrobenzo[b][1,4]oxazepin-3-yl)picolinamide]	2630	224
133	CN1C(=O)[C@@H](NC(=O)c2cc(Oc3ccc(F)cc3)ccn2)COc2ccc(C#CC(C)(C)C)cc21 [Compound I-101, (S)—N-(7-(3,3-dimethylbut-1-yn-1-yl)-5-methyl-4-oxo-2,3,4,5-tetrahydrobenzo[b][1,4]oxazepin-3-yl)-4-(4-fluorophenoxy)picolinamide]	668	36.3
15.1	CN1C(=O)[C@@H](NC(=O)c2cc(Oc3ccccc3F)ccn2)COc2ccc(C#CC3(O)COC3)cc21 [Compound I-112, (S)-4-(2-fluorophenoxy)-N-(7-((3-hydroxyoxetan-3-yl)ethynyl)-5-methyl-4-oxo-2,3,4,5-tetrahydrobenzo[b][1,4]oxazepin-3-yl)picolinamide]	14.2	1.1
27.8	CN1C(=O)[C@@H](NC(=O)n2cc(Cc3ccc(F)cc3)cn2)COc2ccc(C#CC3(O)CCOCC3)cc21 [Compound I-175, (S)-4-(4-fluorobenzyl)-N-(7-((4-hydroxytetrahydro-2H-pyran-4-yl)ethynyl)-5-methyl-4-oxo-2,3,4,5-tetrahydrobenzo[b][1,4]oxazepin-3-yl)-1H-pyrazole-1-carboxamide]	107	9
154	CN1C(=O)[C@@H](NC(=O)n2cc(Cc3ccccc3)cn2)COc2ccc(C#CC(C)(C)C)cc21 [Compound I-212, (S)-4-Benzyl-N-(7-(3,3-dimethylbut-1-yn-1-yl)-5-methyl-4-oxo-2,3,4,5-tetrahydrobenzo[b][1,4]oxazepin-3-yl)-1H-pyrazole-1-carboxamide]	267	4.3
1280	COc1cccc(-c2ccnc(C(=O)N[C@H]3COc4ccc(C#CC(C)(C)O)cc4N(C)C3=O)c2)c1 [II-23, (S)—N-(7-(3-hydroxy-3-methylbut-1-yn-1-yl)-5-methyl-4-oxo-2,3,4,5-tetrahydrobenzo[b][1,4]oxazepin-3-yl)-4-(3-methoxyphenyl)picolinamide]	–	545
